Paper PMC8286840, “Identifying SARS-CoV-2 antiviral compounds by screening for small molecule inhibitors of Nsp3 papain-like protease” (Biochemical Journal, 2021)
Structures can show the parent of a compound that is named as a salt. Where two headings read alike, the source gives them in different places. *1 amine or outer side, *2 acyl side, *3 side chain or, on linkers, in order; H or OH if unused. Where a SMILES comes first, the peptide text is derived from it. Bridges are numbered along the chain shown (N, C = ends). X1 = O=C(CCC[*:2])[*:1]

Legend:
[1] = target: T1, SARS-CoV-2 PLpro (nsp3 1564–1878) (Severe acute respiratory syndrome coronavirus 2, UniProt P0DTD1); experiment: biochemical; design: FRET-quenched peptide (Pro3) cleavage by PLpro, 10 min pre-incubation, slope over 20 min, normalised to no-compound control; details: high concentration screen, read-out: % of control remaining
[2] = target: T1, SARS-CoV-2 PLpro (nsp3 1564–1878); experiment: biochemical; design: FRET-quenched peptide (Pro3) cleavage by PLpro, 10 min pre-incubation, slope over 20 min, normalised to no-compound control; details: low concentration screen, read-out: % of control remaining

Question: Which results are given for `CN(C)C(=O)COC(=O)Cc1ccc(OC(=O)c2ccc(NC(=N)N)cc2)cc1` [Camostat mesylate]?
Answer: remaining activity at 3.75 µM ([1]; Well no.=5405): 109%; remaining activity at 1.25 µM ([2]; Well no.=5405): 101%

Question: For `CC[C@@]1(O)C(=O)OCc2c1cc1n(c2=O)Cc2cc3ccccc3nc2-1` [Camptothecin], which remaining activity at 3.75 µM ([1]; Well no.=1664) is on record?
Answer: 84.5%

Question: What about the remaining activity at 3.75 µM ([1]; Well no.=3127) of the same compound?
Answer: 91.9%

Question: And the remaining activity at 1.25 µM ([2]; Well no.=1664)?
Answer: 98.5%

Question: And the remaining activity at 1.25 µM ([2]; Well no.=3127)?
Answer: 96.8%

Question: Which results are given for `Cc1ccc([C@@H]2O[C@H](CO)[C@@H](O)[C@H](O)[C@H]2O)cc1Cc1ccc(-c2ccc(F)cc2)s1` [Canagliflozin]?
Answer: remaining activity at 3.75 µM ([1]; Well no.=5075): 95.2%; remaining activity at 1.25 µM ([2]; Well no.=5075): 94.6%

Question: Which results are given for `CCOc1nc2cccc(C(=O)OC(C)OC(=O)OC3CCCCC3)c2n1Cc1ccc(-c2ccccc2-c2nn[nH]n2)cc1` (stereo not shown) [Candesartan (Cilexetil)]?
Answer: remaining activity at 3.75 µM ([1]; Well no.=7673): 92.5%; remaining activity at 1.25 µM ([2]; Well no.=7673): 95.7%

Question: With `CCOc1nc2cccc(C(=O)O)c2n1Cc1ccc(-c2ccccc2-c2nnn[nH]2)cc1` [Candesartan] as the compound, how does the remaining activity at 3.75 µM ([1]; Well no.=1846) read?
Answer: 96.2%

Question: What about the remaining activity at 3.75 µM ([1]; Well no.=7380) of the same compound?
Answer: 105%

Question: And the remaining activity at 1.25 µM ([2]; Well no.=1846)?
Answer: 96.4%

Question: And the remaining activity at 1.25 µM ([2]; Well no.=7380)?
Answer: 103%

Question: Which results are given for `C=CC(=O)Nc1cc2c(Nc3ccc(F)c(Cl)c3)ncnc2cc1OCCCN1CCOCC1` [Canertinib]?
Answer: remaining activity at 3.75 µM ([1]; Well no.=2693): 107%; remaining activity at 1.25 µM ([2]; Well no.=2693): 105%

Question: Which results are given for `C[C@]12CCC(=O)C=C1C=C[C@@H]1[C@@H]2CC[C@@]2(C)[C@H]1CC[C@@]21CCC(=O)O1` [Canrenone]?
Answer: remaining activity at 3.75 µM ([1]; Well no.=2181): 98%; remaining activity at 1.25 µM ([2]; Well no.=2181): 93.5%

Question: Which results are given for `C[C@]1(C(=O)O)[C@@H]2CC[C@@H](O2)[C@@]1(C)C(=O)O` [Cantharidic Acid]?
Answer: remaining activity at 3.75 µM ([1]; Well no.=378): 88.7%; remaining activity at 1.25 µM ([2]; Well no.=378): 87.8%

Question: What does the source list for `C[C@@]12C(=O)OC(=O)[C@]1(C)[C@H]1CC[C@@H]2O1` [Cantharidin]?
Answer: remaining activity at 3.75 µM ([1]; Well no.=42): 97.9%; remaining activity at 3.75 µM ([1]; Well no.=3129): 108%; remaining activity at 1.25 µM ([2]; Well no.=42): 94.6%; remaining activity at 1.25 µM ([2]; Well no.=3129): 107%

Question: Which results are given for `CC1=C(/C=C/C(C)=C/C=C/C(C)=C/C=C/C=C(C)/C=C/C=C(C)/C=C/C2=C(C)C(=O)CCC2(C)C)C(C)(C)CCC1=O` [Canthaxanthin]?
Answer: remaining activity at 3.75 µM ([1]; Well no.=1791): 104%; remaining activity at 3.75 µM ([1]; Well no.=4147): 100%; remaining activity at 1.25 µM ([2]; Well no.=1791): 105%; remaining activity at 1.25 µM ([2]; Well no.=4147): 93.8%

Question: `N#Cc1c(N)nc(SCc2csc(-c3ccc(Cl)cc3)n2)c(C#N)c1-c1ccc(OCCO)cc1` [Capadenoson] was tested. Which remaining activity at 3.75 µM ([1]; Well no.=8649) did it give?
Answer: 102%

Question: And the remaining activity at 1.25 µM ([2]; Well no.=8649)?
Answer: 106%

Question: For `CCCCCOC(=O)Nc1nc(=O)n([C@@H]2O[C@H](C)[C@@H](O)[C@H]2O)cc1F` [Capecitabine], which remaining activity at 3.75 µM ([1]; Well no.=2290) is on record?
Answer: 96.5%

Question: And the remaining activity at 1.25 µM ([2]; Well no.=2290)?
Answer: 96.5%

Question: For `CN1N=C2CCN(C(=O)[C@@H](COCc3ccccc3)NC(=O)C(C)(C)N)C[C@@]2(Cc2ccccc2)C1=O` [Capromorelin (Tartrate)], which remaining activity at 3.75 µM ([1]; Well no.=7235) is on record?
Answer: 102%

Question: What about the remaining activity at 1.25 µM ([2]; Well no.=7235) of the same compound?
Answer: 96.9%

Question: Which remaining activity at 3.75 µM ([1]; Well no.=631) does the source give for `Oc1cc2c(cc1O)CN(C(=S)NCCc1ccc(Cl)cc1)CCC2` [Capsazepine] here?
Answer: 99.5%

Question: And the remaining activity at 1.25 µM ([2]; Well no.=631)?
Answer: 98.8%

Question: For `C[C@H](CS)C(=O)N1CCC[C@H]1C(=O)O` [Captopril], which remaining activity at 3.75 µM ([1]; Well no.=318) is on record?
Answer: 97%

Question: What about the remaining activity at 3.75 µM ([1]; Well no.=1915) of the same compound?
Answer: 100%

Question: What about the remaining activity at 3.75 µM ([1]; Well no.=4135) of the same compound?
Answer: 98%

Question: What about the remaining activity at 3.75 µM ([1]; Well no.=7412) of the same compound?
Answer: 106%

Question: And the remaining activity at 1.25 µM ([2]; Well no.=318)?
Answer: 93.1%

Question: What about the remaining activity at 1.25 µM ([2]; Well no.=1915) of the same compound?
Answer: 97.2%

Question: What about the remaining activity at 1.25 µM ([2]; Well no.=4135) of the same compound?
Answer: 101%

Question: What about the remaining activity at 1.25 µM ([2]; Well no.=7412) of the same compound?
Answer: 105%

Question: `C[N+](C)(C)CCOC(N)=O` [Carbachol] was tested. Which remaining activity at 3.75 µM ([1]; Well no.=32) did it give?
Answer: 99%

Question: And the remaining activity at 1.25 µM ([2]; Well no.=32)?
Answer: 95.6%

Question: Which remaining activity at 3.75 µM ([1]; Well no.=4529) does the source give for `CCCCC[C@H](O)/C=C/[C@@H]1[C@H]2C/C(=C/CCCC(=O)O)C[C@H]2C[C@H]1O` [Carbacyclin] here?
Answer: 95.8%

Question: And the remaining activity at 1.25 µM ([2]; Well no.=4529)?
Answer: 91.4%

Question: With `COC(=O)N/N=C/c1c[n+]([O-])c2ccccc2[n+]1[O-]` [Carbadox] as the compound, how does the remaining activity at 3.75 µM ([1]; Well no.=2211) read?
Answer: 93.2%

Question: What about the remaining activity at 1.25 µM ([2]; Well no.=2211) of the same compound?
Answer: 98.3%

Question: `NC(=O)N1c2ccccc2C=Cc2ccccc21` [Carbamazepine] was tested. Which remaining activity at 3.75 µM ([1]; Well no.=270) did it give?
Answer: 94.9%

Question: What about the remaining activity at 3.75 µM ([1]; Well no.=2215) of the same compound?
Answer: 95.8%

Question: And the remaining activity at 1.25 µM ([2]; Well no.=270)?
Answer: 96.8%

Question: And the remaining activity at 1.25 µM ([2]; Well no.=2215)?
Answer: 97.8%

Question: With `C[N+](C)(C)CCOC(N)=O` [Carbamoylcholine (chloride)] as the compound, how does the remaining activity at 3.75 µM ([1]; Well no.=6757) read?
Answer: 97.3%

Question: And the remaining activity at 1.25 µM ([2]; Well no.=6757)?
Answer: 99.9%

Question: With `CC(C[N+](C)(C)C)OC(N)=O` (stereo not drawn) [Carbamyl-beta-methylcholine] as the compound, how does the remaining activity at 3.75 µM ([1]; Well no.=1736) read?
Answer: 94.9%

Question: And the remaining activity at 1.25 µM ([2]; Well no.=1736)?
Answer: 95.2%

Question: Which remaining activity at 3.75 µM ([1]; Well no.=1734) does the source give for `C[N+](C)(C)CCOC(N)=O` [Carbamylcholine] here?
Answer: 102%

Question: And the remaining activity at 1.25 µM ([2]; Well no.=1734)?
Answer: 99.8%

Question: With `CN1C2=CC(=O)/C(=N\NC(N)=O)C=C2CC1S(=O)(=O)O` (stereo not shown) [Carbazochrome sodium sulfonate] as the compound, how does the remaining activity at 3.75 µM ([1]; Well no.=5261) read?
Answer: 95%

Question: And the remaining activity at 1.25 µM ([2]; Well no.=5261)?
Answer: 96.5%

Question: For `CC1(C)S[C@@H]2[C@H](NC(=O)C(C(=O)O)c3ccccc3)C(=O)N2[C@H]1C(=O)O` (stereo partly shown) [Carbenicillin disodium], which remaining activity at 3.75 µM ([1]; Well no.=5030) is on record?
Answer: 96.8%

Question: What about the remaining activity at 1.25 µM ([2]; Well no.=5030) of the same compound?
Answer: 96.4%

Question: For `CCN(CC)CCOCCOC(=O)C1(c2ccccc2)CCCC1` [Carbetapentane citrate], which remaining activity at 3.75 µM ([1]; Well no.=368) is on record?
Answer: 92.5%

Question: And the remaining activity at 1.25 µM ([2]; Well no.=368)?
Answer: 90.8%

Question: Which results are given for `CC[C@H](C)[C@@H]1NC(=O)[C@H](Cc2ccc(OC)cc2)NC(=O)CCCSC[C@@H](C(=O)N2CCC[C@H]2C(=O)N[C@@H](CC(C)C)C(=O)NCC(N)=O)NC(=O)[C@H](CC(N)=O)NC(=O)[C@H](CCC(N)=O)NC1=O` [Carbetocin] (Y(Me)IQNCPLG-NH2; linker N-5 via X1)?
Answer: remaining activity at 3.75 µM ([1]; Well no.=8293): 101%; remaining activity at 1.25 µM ([2]; Well no.=8293): 102%

Question: Which results are given for `CCOC(=O)n1ccn(C)c1=S` [Carbimazole]?
Answer: remaining activity at 3.75 µM ([1]; Well no.=5124): 105%; remaining activity at 1.25 µM ([2]; Well no.=5124): 104%

Question: With `NC(=O)c1nnn(Cc2cc(Cl)c(C(=O)c3ccc(Cl)cc3)c(Cl)c2)c1N` [Carboxyamidotriazole] as the compound, how does the remaining activity at 3.75 µM ([1]; Well no.=5819) read?
Answer: 89.8%

Question: And the remaining activity at 1.25 µM ([2]; Well no.=5819)?
Answer: 94.7%

Question: With `NCCC(=O)NCCc1c[nH]cn1` [Carcinine dihydrochloride] as the compound, how does the remaining activity at 3.75 µM ([1]; Well no.=237) read?
Answer: 97.8%

Question: And the remaining activity at 1.25 µM ([2]; Well no.=237)?
Answer: 95.2%

Question: For `COc1ccc(-c2nn3c(-c4ccccn4)nnc3s2)cc1OC` [Cardionogen-2], which remaining activity at 3.75 µM ([1]; Well no.=5937) is on record?
Answer: 99.4%

Question: What about the remaining activity at 1.25 µM ([2]; Well no.=5937) of the same compound?
Answer: 102%
